{
  "source": "patent US20150164754A1",
  "about": "“ANTI-AGEING COMPOSITION CONTAINING DEHYDROGENATED ABIETIC ACID AS ACTIVE INGREDIENT” (AMOREPACIFIC CORPORATION, priority 2012, published 2015)",
  "key": {"human normal fibroblasts [1]": {"tested_on": "human normal fibroblasts", "assay": "Effect on stimulation of collagen biosynthesis (PICP kit)", "type": "cell-based", "settings": "10 μM dehydrogenated abietic acid, 48 hours, supernatant, 50 μg/ml ascorbic acid added", "method": "The effect of dehydrogenated abietic acid (purchased from Ramidus AB) of Formula 1 on the stimulation of collagen biosynthesis was measured. In order to examine the effect of dehydrogenated abietic acid on the stimulation of collagen biosynthesis, human normal fibroblasts were seeded into a 96-well microplate at a density of 1×10^4 cells/well, and incubated in DMEM (Dulbecco's Modified Eagle's Medium) medium in a CO2 incubator at 36.5° C. for 24 hours. After incubation, in Example 2, the medium was replaced with a serum-free medium containing 10 μM of dehydrogenated abietic acid, and then the cells were further incubated for 48 hours. In Comparative Example 2, cells not treated with dehydrogenated abietic acid were used. At 24 hours before completion of the incubation, 50 μg/ml of ascorbic acid was added to each well to stimulate collagen synthesis. After completion, each well was washed, and the medium was replaced with serum-free DMEM medium, after which the cells were further incubated for 24 hours. After incubation, the supernatant of each well was collected, and the amount of procollagen type-I C-peptide (PICP) in the supernatant was measured using a kit (Takara, Kyoto, Japan) to determine the amount of newly synthesized collagen. The amount of PICP that is the amount of collagen synthesized is expressed in units of ng/2×10^4 cells in Table 2 below."}, "human normal fibroblasts [2]": {"tested_on": "human normal fibroblasts", "assay": "Effect on fibroblast proliferation (MTT)", "type": "cell-based", "settings": "10 μM dehydrogenated abietic acid, 24 hours, relative to group not treated with sample", "method": "The effect of dehydrogenated abietic acid (purchased from Ramidus AB) of Formula 1 on wrinkle reduction was measured. In order to examine the effect of dehydrogenated abietic acid on skin cell proliferation that reduces wrinkles, human normal fibroblasts were seeded into a 96-well microplate at a density of 1×10^4 cells/well, and incubated in DMEM (Dulbecco's Modified Eagle's Medium) medium in a CO2 incubator at 36.5° C. for 24 hours. After incubation, in Example 1, the medium was replaced with a serum-free medium containing 10 μM of dehydrogenated abietic acid, and then the cells were further incubated for 24 hours. In Comparative Example 1, cells not treated with dehydrogenated abietic acid were used. Then, 10 μl of (3-(4,5-dimethyl-thiazol-2-yl)2,5-diphenyl tetrazolium (MTT, 5 mg/ml) was added to each well, which was then allowed to stand for 4 hours, followed by removal of the medium. Then, 100 μl of dimethyl sulfoxide solution was added to each well, and the absorbance at 570 nm was measured with a microplate reader. Based on the absorbance measured as described above, the cell proliferation effect was calculated using the following equation. The results of the calculation are shown in Table 1 below. Cell proliferation effect (%)=(absorbance of group treated with sample/absorbance of group not treated with sample)×100 Equation 1"}},
  "data": [
    {"molecule": "CC(C)c1ccc2c(c1)CC[C@H]1[C@](C)(C(=O)O)CCC[C@]21C", "note": "[Example 1, dehydrogenated abietic acid]", "values": [
      {"measurement": "Amount of collagen synthesized (procollagen type-I C-peptide, PICP)", "setting": "human normal fibroblasts [1]", "result": 220, "unit": "ng/2 × 10^4"},
      {"measurement": "Cell proliferation effect (%)", "setting": "human normal fibroblasts [2]", "result": 60.0, "unit": "%"}
    ]}
  ]
}
